Assay results published in patent US20040052750A1, “Compositions for prevention and alleviation of skin wrinkles” (priority 2000, published 2004).
Marks after values point to notes of the source that are not given here.

Legend:
[1] = test system: fibroblasts derived from a human; experiment: Promoting collagen production in fibroblasts (3H-proline incorporation into collagenase-sensitive protein); format: cell-based; conditions: control = 100%
Procedure: The experimental protocol in detail is as follows.
Human-derived fibroblasts were transferred to a 24 well plate and cultured in a medium containing 10% fetal bovine serum (FBS) for 24 hours, followed by washing twice with phosphate buffered saline. […] After the incubation was terminated, cells from each group were harvested and two fractions of each culture were prepared. One fraction from each culture was treated with collagenase. To all fractions was added trichloroacetic acid to precipitate proteins. The amount of radioactivity incorporated into collagenase-sensitive protein was measured and compared with that of the other fraction which was not treated with collagenase. The difference in radioactivity was attributed to the promoting effect of the compound.

[2] = test system: hairless mice; experiment: Inhibiting the generation of wrinkles in hairless mice (simulated sunlight); format: in vivo; conditions: 10 per group
Procedure: 6-week hairless mice were placed into 21 experimental groups and 3 control groups, with 10 rats per group. […] The experimental protocol in detail is as follows. Hairless mice were radiated using simulated sunlight at a dose of 2 MED (double Minimal Erythema Dose) 3 days a week for […], thereby generating wrinkles. Respective active ingredients or the solvent only were applied twice every day (specifically, on radiation days, the application was performed at 30 min before and after the radiation), at a volume of 100 μl each for 10 weeks from the first radiation day. Degrees of inhibition of generated wrinkles were determined. The determination was performed by visual observation with naked eyes and photography.

[3] = test system: rat skin; experiment: Promotion of collagen production in rat skin (hydroxyproline in implanted PVA sponge); format: in vivo, SD rats; conditions: 200 μl every day for 10 days, control = 100%
Procedure: In brief, 5-week male SD rats were grouped with 5 rats per group. The rats were each incised 1 cm in the center of their abdomens and PVA sponges (Unipoint ind.) were inserted therein. After suturing, as for experimental groups, respective active ingredients to be examined were applied to the PVA sponge-embeded regions i n a volume o f 200 μl every day for 10 days. Upon autopsy, the PVA sponge was removed to quantify hydroxyproline. The PVA sponge was added with 4 ml of 6 N HCl, hydrolized at 130° C. for 3 hours and was subjected to complete drying. 50 μl of methanol was added and the solution was incubated at 110° C. until HCl was removed. 1.2 ml of 50% isopropanol was added to dissolve the remaining precipitate. 200 μl of chloramine-T (sodium p-toluensulfochloramide trihydrate) solution was added while stirring, and let stand for 10 min. After adding 1.2 ml of Ehrlich reagent and mixing, the solution was incubated at 50° C. for 90 min. The resulting solution was cooled to room temperature and absorbance at 558 nm was measured. Hydroxyproline standard solutions were prepared by dissolving 1 mg hydroxyproline in 1 ml HCl and diluting it to concentrations of 0, 0.2, 0.4, 0.8, 1 mg each relative to 25 μl of 6 N HCl. The standard solutions were hydrolyzed at 130° C. for 3 hours. The quantified value of hydroxyproline, relative to hydroxyproline value (100%) of the control group which was applied with solvent only, are shown in Table 2.

[4] = test system: hairless mice; experiment: Alleviating photo-induced wrinkles in hairless mice; format: in vivo; conditions: twice a day for 6 weeks, 10 per group
Procedure: Mice were placed into 21 experimental groups and 3 control groups, with 10 rats per group. […] The experimental protocol is as follows. Hairless mice were radiated using a simulated sunlight at a dose of 2 MED (double Minimal Erythema Dose) 3 days a week for 10 weeks, thereby generating wrinkles. Then, respective active ingredients or the solvent only were applied at a volume of 100 μl each, twice a day for 6 weeks. Degrees of wrinkle reduction were determined. The determination was performed by visually observing the compound-applied region with naked eyes, and the region was photographed. The degrees of alleviation of wrinkles in the compound-treatment groups (experimental groups) were compared with those of the control group and were determined as one of 4 stages, that is, none (Score 0), slight (Score 1), moderate (Score 2) and high (Score 3), and the corresponding mice were counted.

SMILES | Effect of promoting collagen production in fibroblasts (rate of collagen production) ([1]; 10^-5 M) | Effect of promoting collagen production in fibroblasts (rate of collagen production) ([1]; 10^-6 M) | Effect of promoting collagen production in fibroblasts (rate of collagen production) ([1]; 10^-7 M) | Effect of promoting collagen production in fibroblasts (rate of collagen production) ([1]; 10^-8 M) | Inhibition of wrinkles, Score 0 (none) ([2]; 10^-3 M) | Inhibition of wrinkles, Score 1 (slight) ([2]; 10^-3 M) | Inhibition of wrinkles, Score 2 (moderate) ([2]; 10^-3 M) | Inhibition of wrinkles, Score 3 (high) ([2]; 10^-3 M) | Inhibition of wrinkles, Score 0 (none) ([2]; 10^-5 M) | Inhibition of wrinkles, Score 1 (slight) ([2]; 10^-5 M) | Inhibition of wrinkles, Score 2 (moderate) ([2]; 10^-5 M) | Inhibition of wrinkles, Score 3 (high) ([2]; 10^-5 M) | Inhibition of wrinkles, Score 0 (none) ([2]; 10^-8 M) | Inhibition of wrinkles, Score 1 (slight) ([2]; 10^-8 M) | Inhibition of wrinkles, Score 2 (moderate) ([2]; 10^-8 M) | Inhibition of wrinkles, Score 3 (high) ([2]; 10^-8 M) | Reduction of wrinkles, Score 0 (none) ([4]; 10^-3 M) | Reduction of wrinkles, Score 1 (slight) ([4]; 10^-3 M) | Reduction of wrinkles, Score 2 (moderate) ([4]; 10^-3 M) | Reduction of wrinkles, Score 3 (high) ([4]; 10^-3 M) | other results
CCCC(CCC)C(=O)O [Valproic acid] | 370.21% | 332.11% | 283.24% | 201.13% | 0 number of mice | 0 number of mice | 2 number of mice | 8 number of mice | 0 number of mice | 1 number of mice | 2 number of mice | 7 number of mice | 0 number of mice | 1 number of mice | 1 number of mice | 8 number of mice | 0 number of mice | 0 number of mice | 2 number of mice | 8 number of mice | Effect of promoting collagen production in animal skin (hydroxyproline value vs control) ([3]; 10^-5 M): 178.13%; Effect of promoting collagen production in animal skin (hydroxyproline value vs control) ([3]; 10^-6 M): 157.72%; Effect of promoting collagen production in animal skin (hydroxyproline value vs control) ([3]; 10^-7 M): 139.24%; Effect of promoting collagen production in animal skin (hydroxyproline value vs control) ([3]; 10^-8 M): 128.05%; Reduction of wrinkles, Score 0 (none) ([4]; 10^-5 M): 0 number of mice; Reduction of wrinkles, Score 1 (slight) ([4]; 10^-5 M): 1 number of mice; Reduction of wrinkles, Score 2 (moderate) ([4]; 10^-5 M): 2 number of mice; Reduction of wrinkles, Score 3 (high) ([4]; 10^-5 M): 7 number of mice; Reduction of wrinkles, Score 0 (none) ([4]; 10^-8 M): 0 number of mice; Reduction of wrinkles, Score 1 (slight) ([4]; 10^-8 M): 1 number of mice; Reduction of wrinkles, Score 2 (moderate) ([4]; 10^-8 M): 2 number of mice; Reduction of wrinkles, Score 3 (high) ([4]; 10^-8 M): 7 number of mice
COC(=O)C1=C(C)NC(C)=C(C(=O)OC)C1c1ccccc1[N+](=O)[O-] [Nifedipine] | 358.16% | 330.30% | 292.21% | 204.31% | 0 number of mice | 2 number of mice | 3 number of mice | 5 number of mice | 0 number of mice | 2 number of mice | 3 number of mice | 5 number of mice | 0 number of mice | 2 number of mice | 3 number of mice | 5 number of mice | 0 number of mice | 2 number of mice | 2 number of mice | 6 number of mice | Reduction of wrinkles, Score 0 (none) ([4]; 10^-5 M): 0 number of mice; Reduction of wrinkles, Score 1 (slight) ([4]; 10^-5 M): 2 number of mice; Reduction of wrinkles, Score 2 (moderate) ([4]; 10^-5 M): 2 number of mice; Reduction of wrinkles, Score 3 (high) ([4]; 10^-5 M): 6 number of mice; Reduction of wrinkles, Score 0 (none) ([4]; 10^-8 M): 0 number of mice; Reduction of wrinkles, Score 1 (slight) ([4]; 10^-8 M): 2 number of mice; Reduction of wrinkles, Score 2 (moderate) ([4]; 10^-8 M): 3 number of mice; Reduction of wrinkles, Score 3 (high) ([4]; 10^-8 M): 5 number of mice
O=C1NC(=O)C(c2ccccc2)(c2ccccc2)N1 [Phenytoin] | 381.54% | 360.65% | 298.35% | 215.28* % | 0 number of mice | 0 number of mice | 3 number of mice | 7 number of mice | 0 number of mice | 0 number of mice | 3 number of mice | 7 number of mice | 0 number of mice | 0 number of mice | 2 number of mice | 8 number of mice | 0 number of mice | 0 number of mice | 3 number of mice | 7 number of mice | Effect of promoting collagen production in animal skin (hydroxyproline value vs control) ([3]; 10^-5 M): 182.47%; Effect of promoting collagen production in animal skin (hydroxyproline value vs control) ([3]; 10^-6 M): 167.41%; Effect of promoting collagen production in animal skin (hydroxyproline value vs control) ([3]; 10^-7 M): 143.51%; Effect of promoting collagen production in animal skin (hydroxyproline value vs control) ([3]; 10^-8 M): 132.58* %; Reduction of wrinkles, Score 0 (none) ([4]; 10^-5 M): 0 number of mice; Reduction of wrinkles, Score 1 (slight) ([4]; 10^-5 M): 1 number of mice; Reduction of wrinkles, Score 2 (moderate) ([4]; 10^-5 M): 3 number of mice; Reduction of wrinkles, Score 3 (high) ([4]; 10^-5 M): 6 number of mice; Reduction of wrinkles, Score 0 (none) ([4]; 10^-8 M): 0 number of mice; Reduction of wrinkles, Score 1 (slight) ([4]; 10^-8 M): 1 number of mice; Reduction of wrinkles, Score 2 (moderate) ([4]; 10^-8 M): 2 number of mice; Reduction of wrinkles, Score 3 (high) ([4]; 10^-8 M): 7 number of mice
